US7858657B2 (Proix Pharmaceutical Corp., priority 2004, dated 2010)
Several values for one entry are separate records, joined by “and”; a condition that tells them apart may be missing. Equal entries are not always repeated. Structures can show the parent of a compound that is named as a salt. Marks after values point to notes of the source that are not given here.

Experiments:
[1] = test system: A-549 human nsc lung cancer xenografts; assay: Antitumor studies, PX-866 and gefitinib in A-549 xenografts; assay type: in vivo, scid mice
Experimental: Antitumor Studies. […] When the tumors reached 100 or 600 mm3 the mice were stratified into groups of 8 animals having approximately equal mean tumor volumes and drug administration was started. […] Animals were weighed weekly and tumor diameters were measured twice weekly at right angles (d short and d long) with electronic calipers and tumor volumes calculated by the formula volume=(dshort)2×(dlong))2. When the tumor reached 2,000 mm3 or more, or became necrotic the animals were euthanized.
In vivo antitumor studies. […] Tumors were allowed to grow to a mean volume of […] before drug treatment was started every other day for 14 doses. Antitumor activity is expressed as the % volume of the treated tumor/control tumor (T/C %) at the end of the dosing period. There were 8 mice in each group and all differences are p<0.01.

[2] = test system: tumor phospho-Akt (A-549 tumor xenografts); assay: Pharmacodynamic studies, tumor phospho-Akt in A-549 xenografts; assay type: in vivo, scid mice; conditions: gefitinib 75 mg/kg po every other day for 5 days
From the text: Pharmacodynamic Studies. […] Tumor Akt activity was expressed as the ratio of phospho-Ser473-Akt to total Akt.

[3] = test system: Panc-1 pancreatic; assay: Antitumor activity of cytotoxic drugs alone or combined with PX-866, Panc-1 pancreatic (Table 2); assay type: in vivo; conditions: size 75 mm^3; gemcitabine ip 150 mg/kg Q3D × 3
[4] = test system: OvCaR-3 ovarian; assay: Antitumor activity of wortmannin analogs, OvCaR-3 ovarian tumor (Table 1); assay type: in vivo; conditions: initial tumor vol 120 mm^3; for T/C % (optimal test/control): day 40
[5] = test system: HT-29 colon; assay: Antitumor activity of wortmannin analogs, HT-29 colon tumor (Table 1); assay type: in vivo; conditions: for T/C % (optimal test/control): day 16
[6] = test system: OvCaR-3 ovarian; assay: Antitumor activity of cytotoxic drugs alone or combined with PX-866, OvCar-3 ovarian (Table 2); assay type: in vivo; conditions: size 110 mm^3; taxol ip 12 mg/kg Q2D × 5
[7] = Glucose tolerance studies; conditions: mean ± SE of 4 mice
Experimental: Glucose Tolerance Studies. Female C5781/6 mice were fasted overnight and administered a single dose of D(+) glucose (1 mg/kg) as a 0.1 g/ml solution po. […] Human recombinant insulin was administered at 0.075:g/kg ip (26) at the same time as glucose administration.
Values are the mean±SE of 4 mice per group.

[8] = test system: A-549 lung; assay: Antitumor activity of cytotoxic drugs alone or combined with PX-866, A-549 lung (Table 2); assay type: in vivo; conditions: size 300 mm^3; cisplatin ip 1 mg/kg QD × 5
[9] = test system: HT-29 colon; assay: Antitumor activity of cytotoxic drugs alone or combined with PX-866, HT-29 colon (Table 2); assay type: in vivo; conditions: size 150 mm^3; cisplatin ip 2.5 mg/kg Q2D × 3
[10] = molecular target: T1, p110α/p85α (Bos taurus, UniProt P32871); assay: Inhibition of recombinant PtdIns-3-kinase, [32P]-ATP dependent phosphorylation of PtdIns; assay type: biochemical, bovine
T1 construct: purchased Upstate (Charlottesville, Va.)
From the text: Materials and Methods. Compounds. […] Rabbit purified anti-phosphoSer473-Akt antibody, anti-Akt antibody, antiphospho Tyr1086-EGF-receptor antibody and anti-EGFR antibody were obtained from Cell Signaling Technology (Beverly, Mass.). Human recombinant p110α/p85α, p110β/p85α, p120 (and p110*/p85α PtdIns-3-kinases were obtained from Upstate (Charlottesville, Va.). Metformin hydrochloride was obtained from Spectrum Chemical (Gardena, Calif.), pioglitazone hydrochloride and recombinant human insulin from Sigma Chemical (St. Louis).
Measurement of PtdIns-3-kinase.

[11] = initial tumor vol 170 mm^3, 13 mg/kg/day ip Q1D × 9
[12] = initial tumor vol 180 mm^3, 0.75 mg/kg/day ip Q1D × 9

T1 sequence (P32871 whole entry): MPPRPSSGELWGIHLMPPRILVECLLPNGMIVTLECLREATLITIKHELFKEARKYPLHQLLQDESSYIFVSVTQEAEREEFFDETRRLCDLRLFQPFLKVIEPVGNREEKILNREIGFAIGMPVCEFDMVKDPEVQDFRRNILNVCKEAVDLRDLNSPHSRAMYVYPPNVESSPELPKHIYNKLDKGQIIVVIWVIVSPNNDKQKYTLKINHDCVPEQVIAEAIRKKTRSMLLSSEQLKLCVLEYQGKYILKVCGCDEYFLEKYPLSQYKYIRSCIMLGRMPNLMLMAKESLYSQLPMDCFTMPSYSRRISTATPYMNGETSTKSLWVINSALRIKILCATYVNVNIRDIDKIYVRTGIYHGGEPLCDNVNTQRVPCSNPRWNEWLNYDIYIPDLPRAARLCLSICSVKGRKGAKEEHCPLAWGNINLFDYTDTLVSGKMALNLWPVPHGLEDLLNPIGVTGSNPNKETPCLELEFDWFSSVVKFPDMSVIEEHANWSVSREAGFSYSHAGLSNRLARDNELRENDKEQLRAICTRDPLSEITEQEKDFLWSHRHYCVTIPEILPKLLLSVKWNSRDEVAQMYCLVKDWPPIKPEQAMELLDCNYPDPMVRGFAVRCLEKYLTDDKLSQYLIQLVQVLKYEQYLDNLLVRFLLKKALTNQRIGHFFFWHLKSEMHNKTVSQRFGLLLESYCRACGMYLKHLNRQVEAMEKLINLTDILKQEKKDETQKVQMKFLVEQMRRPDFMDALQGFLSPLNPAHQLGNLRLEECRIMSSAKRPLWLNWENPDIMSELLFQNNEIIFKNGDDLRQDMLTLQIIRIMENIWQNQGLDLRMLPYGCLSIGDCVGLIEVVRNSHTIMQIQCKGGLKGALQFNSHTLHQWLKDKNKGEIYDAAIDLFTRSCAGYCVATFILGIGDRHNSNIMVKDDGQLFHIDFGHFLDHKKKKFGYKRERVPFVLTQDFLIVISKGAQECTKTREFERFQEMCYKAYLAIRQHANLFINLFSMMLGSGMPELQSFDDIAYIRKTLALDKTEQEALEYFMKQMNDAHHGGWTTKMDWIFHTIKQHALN
T1 sequence (P23727 2-724 partner): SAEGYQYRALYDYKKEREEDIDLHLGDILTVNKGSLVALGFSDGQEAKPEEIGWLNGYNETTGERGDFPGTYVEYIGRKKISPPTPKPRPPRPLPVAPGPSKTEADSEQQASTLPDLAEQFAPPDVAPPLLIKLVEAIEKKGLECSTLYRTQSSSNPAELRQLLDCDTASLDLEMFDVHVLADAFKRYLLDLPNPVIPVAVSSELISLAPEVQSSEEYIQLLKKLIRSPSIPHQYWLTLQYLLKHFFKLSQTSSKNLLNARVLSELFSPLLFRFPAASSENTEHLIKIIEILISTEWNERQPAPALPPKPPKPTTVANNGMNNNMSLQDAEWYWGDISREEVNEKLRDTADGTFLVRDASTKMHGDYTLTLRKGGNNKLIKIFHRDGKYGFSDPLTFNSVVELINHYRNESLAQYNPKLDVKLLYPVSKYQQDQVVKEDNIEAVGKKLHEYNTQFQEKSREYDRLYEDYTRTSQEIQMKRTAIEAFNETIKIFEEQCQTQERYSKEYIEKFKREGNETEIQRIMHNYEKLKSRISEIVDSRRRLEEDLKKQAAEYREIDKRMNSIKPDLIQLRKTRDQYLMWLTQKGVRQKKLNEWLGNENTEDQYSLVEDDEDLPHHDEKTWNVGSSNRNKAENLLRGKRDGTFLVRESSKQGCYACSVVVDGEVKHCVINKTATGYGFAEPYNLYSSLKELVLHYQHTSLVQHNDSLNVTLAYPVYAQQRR

Compound: COc1cc2ncnc(Nc3ccc(F)c(Cl)c3)c2cc1OCCCN1CCOCC1 [gefitinib, reference compound]
- tumor T/Cs ([1]; administered long term, single agent (discussion)): around 50%
- Tumor T/C % ([1]; gefitinib po 75 mg/kg QOD × 14, 100 mm3 tumors, end of dosing period, 75 mg/kg): 51% and 50.8%
- effect upon tumor phospho-Akt [2]: no significant effect

Compound: Nc1ccn([C@@H]2O[C@H](CO)[C@@H](O)C2(F)F)c(=O)n1 [gemcitabine, reference compound]
- Alone Growth delay days [3]: 7 days
- Alone TGI % [3]: 38%
- Alone log cell kill [3]: 0.2

Compound: COC[C@@H]1OC(=O)/C(=C/N2CCCC2)C2=C(O)C(=O)C3=C([C@H](OC(C)=O)C[C@]4(C)C(=O)CC[C@H]34)[C@]21C [PX-867, Acetic acid 6-hydroxy-1α-methoxymethyl-10β,13β-dimethyl-3,7,17-trioxo-4-pyrrolidin-1-yl-methylene-1,3,4,7,10,11β,12,13,14α,15,16,17-dodecahydro-2-oxa-cyclopenta[α]phenanthren-11-yl]
- Growth Delay ([4]; 13 mg/kg/day ip Q1D × 9): 6 days
- Log10 cell kill ([4]; 13 mg/kg/day ip Q1D × 9): 0.6
- T/C % (optimal test/control) ([4]; 13 mg/kg/day ip Q1D × 9): 41 (40) %
- Growth Delay [5, 11]: 0 days
- Log10 cell kill [5, 11]: 0
- T/C % (optimal test/control) [5, 11]: 80 (16) %

Compound: CC(=O)O[C@H]1C(=O)[C@@]2(C)[C@H]([C@H](OC(=O)c3ccccc3)[C@]3(O)C[C@H](OC(=O)[C@H](O)[C@@H](NC(=O)c4ccccc4)c4ccccc4)C(C)=C1C3(C)C)[C@]1(OC(C)=O)CO[C@@H]1C[C@@H]2O [taxol, paclitaxel, reference compound]
- Alone Growth delay days [6]: 13 days
- Alone TGI % [6]: 58%
- Alone log cell kill [6]: 1.0

Compound: CCc1ccc(CCOc2ccc(CC3SC(=O)NC3=O)cc2)nc1 (stereo not drawn) [Pioglitazone, pioglitazone hydrochloride, reference compound]
- plasma glucose AUC0-180 min ([7]; Pioglitazone 10 mg/kg ip QD × 7, without PX-866): 274 ± 3 mg·min/mL
- plasma glucose AUC0-180 min ([7]; Pioglitazone 10 mg/kg ip QD × 7 with PX-866 10 mg/kg po, hydrochloride): 340 ± 39^c mg · min · ml^−1

Compound: N.N.[Cl][Pt][Cl] [cisplatin, reference compound]
- Alone Growth delay days [8]: 1 days
- Alone TGI % [8]: 16%
- Alone log cell kill [8]: 0.1
- Alone Growth delay days [9]: 0 days
- Alone TGI % [9]: 11%
- Alone log cell kill [9]: 0

Compound: CN(C)C(=N)N=C(N)N [Metformin, Metformin hydrochloride, reference compound]
- plasma glucose AUC0-180 min ([7]; Metformin 250 mg/kg IP QD × 5, without PX-866): 367 ± 46 mg·min/mL
- plasma glucose AUC0-180 min ([7]; Metformin 250 mg/kg IP QD × 5 with PX-866 10 mg/kg po, hydrochloride): 537 ± 4^b mg · min · ml^−1
- plasma glucose AUC0-180 min ([7]; Metformin 250 mg/kg IP QD × 5 with PX-866 10 mg/kg po, listed as metformin, hydrochloride): had no effect

Compound: Insulin: recombinant human insulin from Sigma Chemical
- plasma glucose AUC0-180 min ([7]; Insulin 0.075 μ/kg ip with PX-866 10 mg/kg po): 64 ± 5^ mg · min · ml^−1
- plasma glucose AUC0-180 min ([7]; Insulin 0.075 μ/kg ip with PX-866 10 mg/kg po, listed as insulin): overcame the increase in plasma glucose caused by PX-866
- plasma glucose AUC0-180 min ([7]; Insulin 0.075 μ/kg ip, without PX-866): 64 ± 25 mg·min/mL

Compound: COC[C@H]1OC(=O)c2coc3c2[C@@]1(C)C1=C(C3=O)[C@@H]2CCC(=O)[C@@]2(C)C[C@H]1OC(C)=O [wortmannin, reference compound]
- Growth Delay ([4]; 0.75 mg/kg/day ip Q1D × 9): 5 days
- Log10 cell kill ([4]; 0.75 mg/kg/day ip Q1D × 9): 0.5
- T/C % (optimal test/control) ([4]; 0.75 mg/kg/day ip Q1D × 9): 47 (40) %
- Growth Delay [5, 12]: 5 days
- Log10 cell kill [5, 12]: 0.3
- T/C % (optimal test/control) [5, 12]: 36 (16) %
- IC50 [10]: 4 nM
